In patent US6737383B1, “Herbicidal oxadiazolidines” (priority 1999, dated 2004):

Columns and labels:
rice = assay: Test B flood test rice; assay type: in vivo, Oryza sativa; conditions: Pre-emergence
Summary of the method: (§1)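 Plants were grown to the 2-leaf stage before treatment with test chemical, then held in a greenhouse for twelve to sixteen days. Injury was visually rated against untreated controls on a 0–10 scale, where 0 is no effect and 10 is complete control.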

sugar beet = assay: Test B pre/postemergence sugar beet; assay type: in vivo, Beta vulgaris
Summary of the method: (§2)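 Test chemicals in a non-phytotoxic solvent mixture with surfactant were sprayed preemergence onto planted seeds and postemergence onto plants 2 to 18 cm tall (1- to 4-leaf stage). After twelve to sixteen days in a greenhouse, injury was visually rated against untreated controls from 0 (no effect) to 10 (complete control).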

surinam grass = assay: Test B pre/postemergence surinam grass; assay type: in vivo, Brachiaria decumbens
Summary of the method: as §2

wheat = assay: Test B pre/postemergence wheat; assay type: in vivo, Triticum aestivum
Summary of the method: as §2

duck salad = assay: Test B flood test duck salad; assay type: in vivo, Heteranthera limosa; conditions: Pre-emergence
Summary of the method: as §1

pigweed = assay: Test B pre/postemergence pigweed; assay type: in vivo, Amaranthus retroflexus
Summary of the method: as §2

corn = assay: Test B pre/postemergence corn; assay type: in vivo, Zea mays
Summary of the method: as §2

rape = assay: Test B pre/postemergence rape; assay type: in vivo, Brassica napus
Summary of the method: as §2

purple nutsedge = assay: Test B pre/postemergence purple nutsedge; assay type: in vivo, Cyperus rotundus
Summary of the method: as §2

wild oat = assay: Test B pre/postemergence wild oat; assay type: in vivo, Avena fatua
Summary of the method: as §2

smallflower flatsedge = assay: Test B flood test smallflower flatsedge; assay type: in vivo, Cyperus difformis; conditions: Pre-emergence
Summary of the method: as §1

crabgrass = assay: Test B pre/postemergence crabgrass; assay type: in vivo, Digitaria sanguinalis
Summary of the method: as §2

soybean = assay: Test B pre/postemergence soybean; assay type: in vivo, Glycine max
Summary of the method: as §2

velvetleaf = assay: Test B pre/postemergence velvetleaf; assay type: in vivo, Abutilon theophrasti
Summary of the method: as §2

blackgrass = assay: Test B pre/postemergence blackgrass; assay type: in vivo, Alopecurus myosuroides
Summary of the method: as §2

bedstraw = assay: Test B pre/postemergence bedstraw; assay type: in vivo, Galium aparine
Summary of the method: as §2

[1] = Rate 1000 g/ha, scale 0 to 10 (0 no effect, 10 complete control)
[2] = Rate 125 g/ha, flood test species, scale 0 to 10 where 0 is no effect and 10 is complete control
[3] = Rate 250 g/ha, flood-test species, scale 0 to 10, 0 is no effect, 10 is complete control
[4] = Rate 500 g/ha, flood test species, scale 0 to 10 (0 no effect, 10 complete control)
[5] = Postemergence, Rate 1000 g/ha, scale 0 to 10 (0 no effect, 10 complete control)
[6] = Preemergence, Rate 250 g/ha, scale of 0 to 10 where 0 is no effect and 10 is complete control
[7] = Preemergence, Rate 500 g/ha, scale of 0 to 10 where 0 is no effect and 10 is complete control
[8] = Rate 125 g/ha, Postemergence, scale of 0 to 10 where 0 is no effect and 10 is complete control
[9] = Rate 125 g/ha, Preemergence, scale of 0 to 10 where 0 is no effect and 10 is complete control
[10] = Rate 250 g/ha, Postemergence, scale of 0 to 10 where 0 is no effect and 10 is complete control
[11] = Rate 500 g/ha, Postemergence, scale 0 to 10, 0 no effect, 10 complete control
[12] = Rate 1000 g/ha, Preemergence, scale 0 to 10 (0 no effect, 10 complete control)

In the case of C=CCn1c(=O)on(C(=O)N(c2ccc(F)cc2)C(C)C(=O)OCC)c1=O (stereo not shown) [Compound 279], the “Rice plant response rating” value (rice; [1]) was 0, the “Rice plant response rating” value (rice; [2]) was 0 and the “Rice plant response rating” value (rice; [3]) was 0. For the same molecule, the “Rice plant response rating” value (rice; [4]) was 0, the “Sugarbeets plant response rating” value (sugar beet; [5]) was 4 and the “Sugarbeets plant response rating” value (sugar beet; [6]) was 0. For the same molecule, the “Plant response rating, Sugarbeets” value (sugar beet; [7]) was 0, the “Sugarbeets plant response rating” value (sugar beet; [8]) was 0 and the “Sugarbeets plant response rating” value (sugar beet; [9]) was 0. The “Plant response rating, Sugarbeets” value (sugar beet; [10]) was 0, the “Sugarbeets plant response rating” value (sugar beet; [11]) was 0 and the “Plant response rating, Sugarbeets” value (sugar beet; [12]) was 0. For the same molecule, the “B. signalgrass plant response rating” value (surinam grass; [5]) was 0, the “B. signalgrass plant response rating” value (surinam grass; [6]) was 0 and the “Plant response rating, B. signalgrass” value (surinam grass; [7]) was 0. For the same molecule, the “B. signalgrass plant response rating” value (surinam grass; [8]) was 0, the “B. signalgrass plant response rating” value (surinam grass; [9]) was 0 and the “Plant response rating, B. signalgrass” value (surinam grass; [10]) was 0. For the same molecule, the “B. signalgrass plant response rating” value (surinam grass; [11]) was 0, the “Plant response rating, B. signalgrass” value (surinam grass; [12]) was 0 and the “Wheat plant response rating” value (wheat; [5]) was 1. For the same molecule, the “Wheat plant response rating” value (wheat; [6]) was 0, the “Plant response rating, Wheat” value (wheat; [7]) was 0 and the “Wheat plant response rating” value (wheat; [8]) was 0. The “Wheat plant response rating” value (wheat; [9]) was 0, the “Plant response rating, Wheat” value (wheat; [10]) was 0 and the “Wheat plant response rating” value (wheat; [11]) was 0. The “Plant response rating, Wheat” value (wheat; [12]) was 0, the “Ducksalad plant response rating” value (duck salad; [1]) was 0 and the “Ducksalad plant response rating” value (duck salad; [2]) was 0. The “Ducksalad plant response rating” value (duck salad; [3]) was 0, the “Ducksalad plant response rating” value (duck salad; [4]) was 0 and the “Redroot pigweed plant response rating” value (pigweed; [5]) was 4. The “Redroot pigweed plant response rating” value (pigweed; [6]) was 0, the “Plant response rating, Redroot pigweed” value (pigweed; [7]) was 0 and the “Redroot pigweed plant response rating” value (pigweed; [8]) was 0. The “Redroot pigweed plant response rating” value (pigweed; [9]) was 0, the “Plant response rating, Redroot pigweed” value (pigweed; [10]) was 2 and the “Redroot pigweed plant response rating” value (pigweed; [11]) was 2. The “Plant response rating, Redroot pigweed” value (pigweed; [12]) was 0, the “Corn plant response rating” value (corn; [5]) was 0 and the “Corn plant response rating” value (corn; [6]) was 0. For the same molecule, the “Plant response rating, Corn” value (corn; [7]) was 0, the “Corn plant response rating” value (corn; [8]) was 0 and the “Corn plant response rating” value (corn; [9]) was 0. The “Plant response rating, Corn” value (corn; [10]) was 0, the “Corn plant response rating” value (corn; [11]) was 0 and the “Plant response rating, Corn” value (corn; [12]) was 0. The “Rape plant response rating” value (rape; [5]) was 0, the “Rape plant response rating” value (rape; [6]) was 0 and the “Plant response rating, Rape” value (rape; [7]) was 0. For the same molecule, the “Rape plant response rating” value (rape; [8]) was 0, the “Rape plant response rating” value (rape; [9]) was 0 and the “Plant response rating, Rape” value (rape; [10]) was 0. For the same molecule, the “Rape plant response rating” value (rape; [11]) was 0, the “Plant response rating, Rape” value (rape; [12]) was 0 and the “Nutsedge plant response rating” value (purple nutsedge; [5]) was 0. The “Nutsedge plant response rating” value (purple nutsedge; [6]) was 0, the “Nutsedge plant response rating” value (purple nutsedge; [8]) was 0 and the “Plant response rating, Nutsedge” value (purple nutsedge; [10]) was 0. For the same molecule, the “Nutsedge plant response rating” value (purple nutsedge; [11]) was 0, the “Plant response rating, Nutsedge” value (purple nutsedge; [12]) was 0 and the “Wild oats plant response rating” value (wild oat; [5]) was 0. For the same molecule, the “Wild oats plant response rating” value (wild oat; [6]) was 0, the “Plant response rating, Wild oats” value (wild oat; [7]) was 0 and the “Wild oats plant response rating” value (wild oat; [8]) was 0. The “Plant response rating, Wild oats” value (wild oat; [10]) was 0, the “Wild oats plant response rating” value (wild oat; [11]) was 0 and the “Plant response rating, Wild oats” value (wild oat; [12]) was 0. For the same molecule, the “S. Flatsedge plant response rating” value (smallflower flatsedge; [1]) was 0, the “S. Flatsedge plant response rating” value (smallflower flatsedge; [2]) was 0 and the “S. Flatsedge plant response rating” value (smallflower flatsedge; [3]) was 0. The “S. Flatsedge plant response rating” value (smallflower flatsedge; [4]) was 0, the “Crabgrass plant response rating” value (crabgrass; [6]) was 0 and the “Plant response rating, Crabgrass” value (crabgrass; [7]) was 1. The “Crabgrass plant response rating” value (crabgrass; [8]) was 0, the “Crabgrass plant response rating” value (crabgrass; [9]) was 0 and the “Plant response rating, Crabgrass” value (crabgrass; [10]) was 0. The “Crabgrass plant response rating” value (crabgrass; [11]) was 0, the “Plant response rating, Crabgrass” value (crabgrass; [12]) was 4 and the “Soybean plant response rating” value (soybean; [5]) was 4. The “Soybean plant response rating” value (soybean; [6]) was 0, the “Plant response rating, Soybean” value (soybean; [7]) was 0 and the “Soybean plant response rating” value (soybean; [8]) was 0. The “Soybean plant response rating” value (soybean; [9]) was 0, the “Plant response rating, Soybean” value (soybean; [10]) was 2 and the “Soybean plant response rating” value (soybean; [11]) was 4. The “Plant response rating, Soybean” value (soybean; [12]) was 0, the “Velvetleaf plant response rating” value (velvetleaf; [5]) was 0 and the “Velvetleaf plant response rating” value (velvetleaf; [6]) was 0. For the same molecule, the “Plant response rating, Velvetleaf” value (velvetleaf; [7]) was 0, the “Velvetleaf plant response rating” value (velvetleaf; [8]) was 0 and the “Velvetleaf plant response rating” value (velvetleaf; [9]) was 0. For the same molecule, the “Plant response rating, Velvetleaf” value (velvetleaf; [10]) was 0, the “Velvetleaf plant response rating” value (velvetleaf; [11]) was 0 and the “Plant response rating, Velvetleaf” value (velvetleaf; [12]) was 0. For the same molecule, the “Blackgrass plant response rating” value (blackgrass; [5]) was 6, the “Blackgrass plant response rating” value (blackgrass; [6]) was 0 and the “Plant response rating, Blackgrass” value (blackgrass; [7]) was 0. For the same molecule, the “Blackgrass plant response rating” value (blackgrass; [8]) was 0, the “Blackgrass plant response rating” value (blackgrass; [9]) was 0 and the “Plant response rating, Blackgrass” value (blackgrass; [10]) was 2. The “Blackgrass plant response rating” value (blackgrass; [11]) was 4, the “Plant response rating, Blackgrass” value (blackgrass; [12]) was 0 and the “Bedstraw plant response rating” value (bedstraw; [5]) was 0. The “Bedstraw plant response rating” value (bedstraw; [6]) was 0, the “Plant response rating, Bedstraw” value (bedstraw; [7]) was 0 and the “Bedstraw plant response rating” value (bedstraw; [8]) was 0. For the same molecule, the “Bedstraw plant response rating” value (bedstraw; [9]) was 0, the “Plant response rating, Bedstraw” value (bedstraw; [10]) was 0 and the “Bedstraw plant response rating” value (bedstraw; [11]) was 0. The “Plant response rating, Bedstraw” value (bedstraw; [12]) was 0.
